In US20250171437A1 (Agios Pharmaceuticals,Inc., priority 2022, published 2025):

What follows are compounds tested against T1, human PAH with the R408W mutation (A375 R408W cells) (Homo sapiens, UniProt P00439, R408W) (assay: Cell Based Phenylalanine Flux Assay). Conditions: A375 R408W cells; 24 hrs with compound, then 20 μM sepiapterin and 800 μM 13C9,15N-Phenylalanine for 4 hours; 13C-Tyrosine by LC-MS; average where tested multiple times.
T1 construct: expressed in transfected cells
T1 sequence (P00439 1-452 R408W): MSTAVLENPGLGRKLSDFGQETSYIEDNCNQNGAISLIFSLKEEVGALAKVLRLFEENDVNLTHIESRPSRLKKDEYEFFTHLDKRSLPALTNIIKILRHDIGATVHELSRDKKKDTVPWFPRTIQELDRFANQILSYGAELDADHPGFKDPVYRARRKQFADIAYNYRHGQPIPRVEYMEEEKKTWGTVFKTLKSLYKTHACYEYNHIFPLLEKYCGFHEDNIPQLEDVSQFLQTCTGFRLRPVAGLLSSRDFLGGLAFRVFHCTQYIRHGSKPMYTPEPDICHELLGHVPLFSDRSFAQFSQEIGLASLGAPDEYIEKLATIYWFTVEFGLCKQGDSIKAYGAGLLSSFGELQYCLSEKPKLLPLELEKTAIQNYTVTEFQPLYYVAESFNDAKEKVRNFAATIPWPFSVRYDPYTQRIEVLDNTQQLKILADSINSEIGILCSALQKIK
Procedure, shortened: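 Puromycin-selected A375 line, lentiviral hPAH R408W; cmpd 24 h, 37 °C, 5% CO2, 0.5% DMSO; then 20 μM sepiapterin + 800 μM 13C9,15N-Phe, 4 h; media extracted in 80% MeCN; 13C-Tyr by LC-MS; AC50 from 10-pt curves.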

Q: Which AC50 does the source give for `Cc1ccc(F)c2nc([C@@H]3c4nc[nH]c4CCN3C(=O)c3ocnc3C(F)F)oc12` [Example 743, (S)-(4-(difluoromethyl)oxazol-5-yl)(4-(4-fluoro-7-methylbenzo[d]oxazol-2-yl)-6,7-dihydro-1H-imidazo[4,5-c]pyridin-5(4H)-yl)methanone] here?
A: The AC50 was ≤ 0.5 µM.

Q: With `O=C(c1ocnc1C(F)F)N1CCc2[nH]cnc2[C@@H]1c1nc2ccc(F)cc2o1` [Example 164, (R)-(4-(difluoromethyl)oxazol-5-yl)(4-(6-fluorobenzo[d]oxazol-2-yl)-6,7-dihydro-1H-imidazo[4,5-c]pyridin-5(4H)-yl)methanone] as the compound, how does the AC50 read?
A: Its AC50 is 1 to 5 µM.

Q: How did the AC50 turn out when `O=C(c1nnc(C2CC2)o1)N1CCc2[nH]cnc2[C@H]1c1nc2c(F)ccc(F)c2o1` [Example 855, (S)-(5-cyclopropyl-1,3,4-oxadiazol-2-yl)(4-(4,7-difluorobenzo[d]oxazol-2-yl)-6,7-dihydro-1H-imidazo[4,5-c]pyridin-5(4H)-yl)methanone] was run?
A: Its AC50 is ≤ 0.5 µM.

Q: Which AC50 does the source give for “(R)-(4-(5-fluorobenzo[d]oxazol-2-yl)-6,7-dihydro-1H-imidazo[4,5-c]pyridin-5(4H)-yl)(6-(methoxymethyl)pyrazolo[1,5-a]pyridin-3-yl)methanone [Example 30]” here?
A: The AC50 was ≥ 5 µM.

Q: How did the AC50 turn out when `Cc1cc(F)cc2nc([C@@H]3c4nc[nH]c4CCN3C(=O)c3ocnc3C(F)F)oc12` [Example 657, (S)-(4-(difluoromethyl)oxazol-5-yl)(4-(5-fluoro-7-methylbenzo[d]oxazol-2-yl)-6,7-dihydro-1H-imidazo[4,5-c]pyridin-5(4H)-yl)methanone] was run?
A: The AC50 was ≤ 0.5 µM.

Q: For `Cc1cc(F)c2oc([C@@H]3c4nc[nH]c4CCN3C(=O)c3ocnc3C(F)F)nc2c1` [Example 501, (S)-(4-(difluoromethyl)oxazol-5-yl)(4-(7-fluoro-5-methylbenzo[d]oxazol-2-yl)-6,7-dihydro-1H-imidazo[4,5-c]pyridin-5(4H)-yl)methanone], which AC50 is on record?
A: The AC50 was ≤ 0.5 µM.

Q: Which AC50 does the source give for `O=C(c1nnc(-c2ccccn2)o1)N1CCc2[nH]cnc2[C@@H]1c1nc2c(F)ccc(F)c2o1` [Example 519, (R)-(4-(4,7-difluorobenzo[d]oxazol-2-yl)-6,7-dihydro-1H-imidazo[4,5-c]pyridin-5(4H)-yl)(5-(pyridin-2-yl)-1,3,4-oxadiazol-2-yl)methanone] here?
A: Its AC50 is 0.5 to 1 µM.

Q: For `O=C(c1oc(-c2cncnc2)nc1C(F)F)N1CCc2[nH]cnc2[C@H]1c1nc2cc(F)ccc2o1` [Example 406, (S)-(4-(difluoromethyl)-2-(pyrimidin-5-yl)oxazol-5-yl)(4-(5-fluorobenzo[d]oxazol-2-yl)-6,7-dihydro-1H-imidazo[4,5-c]pyridin-5(4H)-yl)methanone], which AC50 is on record?
A: The AC50 was ≤ 0.5 µM.

Q: `O=C(c1oc(-c2ccc(C(F)(F)F)cn2)nc1C(F)F)N1CCc2[nH]cnc2[C@H]1c1nc2cccc(F)c2o1` [Example 633, (S)-(4-(difluoromethyl)-2-(5-(trifluoromethyl)pyridin-2-yl)oxazol-5-yl)(4-(7-fluorobenzo[d]oxazol-2-yl)-6,7-dihydro-1H-imidazo[4,5-c]pyridin-5(4H)-yl)methanone] was tested. Which AC50 did it give?
A: The AC50 was ≤ 0.5 µM.

Q: How did the AC50 turn out when `O=C(c1ccnn1C(F)F)N1CCc2[nH]cnc2[C@@H]1c1nc2c(F)cccc2o1` [Example 202, (R)-(1-(difluoromethyl)-1H-pyrazol-5-yl)(4-(4-fluorobenzo[d]oxazol-2-yl)-6,7-dihydro-1H-imidazo[4,5-c]pyridin-5(4H)-yl)methanone] was run?
A: Its AC50 is 1 to 5 µM.

Q: `O=C(c1nnc(-c2ccccn2)o1)N1CCc2[nH]cnc2[C@H]1c1nc2c(F)c(F)ccc2o1` [Example 629, (S)-(4-(4,5-difluorobenzo[d]oxazol-2-yl)-6,7-dihydro-1H-imidazo[4,5-c]pyridin-5(4H)-yl)(5-(pyridin-2-yl)-1,3,4-oxadiazol-2-yl)methanone] was tested. Which AC50 did it give?
A: The AC50 was 0.5 to 1 µM.

Q: `O=C(c1cnn2cc(-c3ccccn3)ccc12)N1CCc2[nH]cnc2[C@H]1c1nc2c(F)cccc2o1` [Example 543, (S)-(4-(4-fluorobenzo[d]oxazol-2-yl)-6,7-dihydro-1H-imidazo[4,5-c]pyridin-5(4H)-yl)(6-(pyridin-2-yl)pyrazolo[1,5-a]pyridin-3-yl)methanone] was tested. Which AC50 did it give?
A: The AC50 was ≤ 0.5 µM.

Q: For `Cc1cnn(C)c1-c1nnc(C(=O)N2CCc3[nH]cnc3[C@@H]2c2nc3cc(F)ccc3o2)o1` [Example 120, (R)-(5-(1,4-dimethyl-1H-pyrazol-5-yl)-1,3,4-oxadiazol-2-yl)(4-(5-fluorobenzo[d]oxazol-2-yl)-6,7-dihydro-1H-imidazo[4,5-c]pyridin-5(4H)-yl)methanone], which AC50 is on record?
A: Its AC50 is 1 to 5 µM.

Q: `O=C(c1oc(N2CCOCC2)nc1C(F)F)N1CCc2[nH]cnc2[C@H]1c1nc2cc(F)ccc2o1` [Example 413, (S)-(4-(difluoromethyl)-2-morpholinooxazol-5-yl)(4-(5-fluorobenzo[d]oxazol-2-yl)-6,7-dihydro-1H-imidazo[4,5-c]pyridin-5(4H)-yl)methanone] was tested. Which AC50 did it give?
A: Its AC50 is 0.5 to 1 µM.

Q: How did the AC50 turn out when `O=C(c1nnc(-c2ccc(F)cn2)o1)N1CCc2[nH]cnc2[C@H]1c1nc2cc(F)ccc2o1` [Example 33, (S)-(4-(5-fluorobenzo[d]oxazol-2-yl)-6,7-dihydro-1H-imidazo[4,5-c]pyridin-5(4H)-yl)(5-(5-fluoropyridin-2-yl)-1,3,4-oxadiazol-2-yl)methanone] was run?
A: The AC50 was 0.5 to 1 µM.

Q: With `Cc1cc(F)c2oc([C@@H]3c4nc[nH]c4CCN3C(=O)c3oc(C(C)(C)O)nc3C(F)F)nc2c1` [Example 499, (S)-(4-(difluoromethyl)-2-(2-hydroxypropan-2-yl)oxazol-5-yl)(4-(7-fluoro-5-methylbenzo[d]oxazol-2-yl)-6,7-dihydro-1H-imidazo[4,5-c]pyridin-5(4H)-yl)methanone] as the compound, how does the AC50 read?
A: Its AC50 is ≤ 0.5 µM.

Q: With `CC(C)(O)c1nc(C(F)(F)F)c(C(=O)N2CCc3[nH]cnc3[C@H]2c2nc3ccc(F)cc3o2)o1` [Example 255, (S)-(4-(6-fluorobenzo[d]oxazol-2-yl)-6,7-dihydro-1H-imidazo[4,5-c]pyridin-5(4H)-yl)(2-(2-hydroxypropan-2-yl)-4-(trifluoromethyl)oxazol-5-yl)methanone] as the compound, how does the AC50 read?
A: The AC50 was ≤ 0.5 µM.

Q: `COc1cccc2nc([C@@H]3c4nc[nH]c4CCN3C(=O)c3nc(C(F)(F)F)nn3C)oc12` [Example 697, (S)-(4-(7-methoxybenzo[d]oxazol-2-yl)-6,7-dihydro-1H-imidazo[4,5-c]pyridin-5(4H)-yl)(1-methyl-3-(trifluoromethyl)-1H-1,2,4-triazol-5-yl)methanone] was tested. Which AC50 did it give?
A: The AC50 was 0.5 to 1 µM.

Same assay, conditions: A375 cells expressing R408W PAH; 24 hrs with compound, then 20 μM sepiapterin and 800 μM 13C9,15N-Phenylalanine for 4 hours; 13C-Tyrosine by LC-MS; average where tested multiple times

Q: `Cn1cncc1-c1nnc(C(=O)N2CCc3[nH]cnc3C2c2nc3cc(F)ccc3o2)o1` (centres unmarked) was tested. Which AC50 did it give?
A: Its AC50 is 1 to 5 µM.

Q: Which AC50 does the source give for `O=C(C1CC1)N1CCc2[nH]cnc2C1c1nc2cc(F)ccc2o1` (centres unmarked) here?
A: Its AC50 is 1 to 5 µM.

Q: How did the AC50 turn out when `Cn1ccc(C(=O)N2CCc3[nH]cnc3C2c2nc3cc(F)ccc3o2)n1` (centres unmarked) was run?
A: The AC50 was 1 to 5 µM.

Q: How did the AC50 turn out when `Cc1ncoc1C(=O)N1CCc2[nH]cnc2C1c1nc2cc(F)ccc2o1` (centres unmarked) was run?
A: Its AC50 is 1 to 5 µM.

Q: How did the AC50 turn out when `Cc1n[nH]cc1-c1nnc(C(=O)N2CCc3[nH]cnc3C2c2nc3cc(F)ccc3o2)o1` (centres unmarked) was run?
A: The AC50 was 1 to 5 µM.

Q: Which AC50 does the source give for `Cc1ccc2oc(C3c4nc[nH]c4CCN3C(=O)c3cnn4cc(CN(C)C)ccc34)nc2c1` (centres unmarked) here?
A: Its AC50 is 1 to 5 µM.

Q: With `CC(C)(O)c1nnc(C(=O)N2CCc3[nH]cnc3C2c2nc3cc(F)ccc3o2)o1` (centres unmarked) as the compound, how does the AC50 read?
A: The AC50 was 1 to 5 µM.

Q: With `CCOC(=O)N1CCN(c2ccc3c(C(=O)N4CCc5[nH]cnc5C4c4nc5cc(F)ccc5o4)cnn3c2)CC1` (centres unmarked) as the compound, how does the AC50 read?
A: The AC50 was ≥ 5 µM.

Q: With `O=C(c1nncn1C1CC1)N1CCc2[nH]cnc2C1c1nc2ccc(F)cc2o1` (centres unmarked) as the compound, how does the AC50 read?
A: Its AC50 is 1 to 5 µM.

Q: How did the AC50 turn out when `O=C(c1ccn(-c2ccccn2)n1)N1CCc2[nH]cnc2C1c1nc2cccc(F)c2o1` (centres unmarked) was run?
A: The AC50 was 1 to 5 µM.

Q: How did the AC50 turn out when `Cn1nc(C(F)(F)F)nc1C(=O)N1CCc2[nH]cnc2C1c1nc2ccc(F)cc2o1` (centres unmarked) was run?
A: Its AC50 is 1 to 5 µM.
